The conditions of data set [1]: DTA; for Normal melting temperature: Crystal; for Triple point temperature: Crystal 2.
Data set [2] can be described thus: Molar enthalpy of transition or fusion. The settings on record: DSC.

Numbers after ± are expanded uncertainties.

We go through seven compounds from the NIST ThermoML archive (doi:10.1016/j.tca.2010.11.011).

Take `O=C(O)CCCCC(=O)O` [1,6-hexanedioic acid]: the Normal melting temperature in data set [1] was found to be 153.00 ± 4 °C. Also, in data set [2] (Crystal), the “Molar enthalpy of transition or fusion” value was found to be 9.08 ± 0.239 kcal/mol.

For `O=C(O)CCCCCCCCC(=O)O` [1,10-decanedioic acid], in data set [1], the Normal melting temperature was 132.00 ± 4 °C. Also, the “Molar enthalpy of transition or fusion” value in data set [2] (Crystal) was determined as 11 ± 0.287 kcal/mol.

Take `CC(CO)(CO)C(=O)O` [2,2-bis(hydroxymethyl)propanoic acid]: the Triple point temperature in data set [1] came to 458.15 ± 1 K. Moreover, in data set [2] (Crystal 2), the “Molar enthalpy of transition or fusion” value was found to be 9.26 ± 0.263 kcal/mol.

Turning to `NC(CO)(CO)CO` [2-amino-2-(hydroxymethyl)-1,3-propanediol], the Triple point temperature in data set [1] was determined as 405.15 ± 1 K. Further, the “Molar enthalpy of transition or fusion” value in data set [2] (Crystal 2) was determined as 8.25 ± 0.232 kcal/mol.

On to `O=C(O)/C=C\C(=O)O` [cis-1,4-butenedioic acid], for which, in data set [1], the Normal melting temperature was 135.00 ± 8 °C. Also, the “Molar enthalpy of transition or fusion” value in data set [2] (Crystal) stood at 6.52 ± 0.194 kcal/mol.

Take `COC(=O)c1ccc(C(=O)OC)cc1` [dimethyl 1,4-benzenedicarboxylate]: the Normal melting temperature in data set [1] was 142.00 ± 1 °C. The “Molar enthalpy of transition or fusion” value in data set [2] (Crystal) came to 7.89 ± 0.232 kcal/mol.

Turning to `O=C1OC(=O)c2ccccc21` [isobenzofuran-1,3-dione], the Normal melting temperature in data set [1] was found to be 131.00 ± 1 °C. In addition, the “Molar enthalpy of transition or fusion” value in data set [2] (Crystal) came to 5.63 ± 0.177 kcal/mol.
